The term EC50 denotes the concentration at which the effect is half-maximal.

For assay [1], the target named is T1, ΔF508-CFTR (Homo sapiens, UniProt P13569, DEL508-508).
T1 construct: host or cells: CFBE41o-, doxycycline-inducible
The assay is described as follows: CFTR cell surface levels using HRP-tagged ΔF508-CFTR expressing CFBE cells, intrinsic corrector capacity. The settings on record: for EC50: read-out: EC50. It counts as cell-based. The method in brief: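 Here the cells express ΔF508-CFTR with horseradish peroxidase inserted in extracellular loop 4, so only rescued channel at the surface gives luminescent signal. Compounds act on their own, 20 h at the reduced temperature of 33 °C; values are percent activity relative to DMSO and a 3 μM corrector.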

Assay [2] deals with T1, ΔF508-CFTR. The assay is described as follows: CFTR cell surface levels using HRP-tagged ΔF508-CFTR expressing CFBE cells, in the presence of a co-corrector. The assay is classed as cell-based. To be noted: HRP-tagged ΔF508-CFTR expressing CFBE cells, in the presence of 3 μM co-corrector; for EC50: read-out: EC50. The method in brief:
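Cells were seeded with 0.5 μg/mL doxycycline and held 68 h at 37 °C. Test compounds plus 3 μM co-corrector (final 0.1% DMSO) were then added for 20 h at 33 °C. Washed cells received HRP substrate, and luminescence was normalized between DMSO and 3 μM co-corrector controls.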

Where [3] appears, read: HRP-tagged ΔF508-CFTR CFBE41o- cells, compounds alone (intrinsic corrector capacity), 20 hours at 33° C., positive control 3 μM corrector.
The mark [4] stands for this setting: HRP-tagged ΔF508-CFTR CFBE41o- cells, compounds alone (intrinsic corrector capacity), 20 hours at 33° C.
Where [5] appears, read: HRP-tagged ΔF508-CFTR expressing CFBE cells, intrinsic corrector capacity (no co-corrector), 33° C., 20 hours.

SMILES strings stand for the structures.

T1 sequence (P13569 with tags, fused parts or gaps DEL508-508): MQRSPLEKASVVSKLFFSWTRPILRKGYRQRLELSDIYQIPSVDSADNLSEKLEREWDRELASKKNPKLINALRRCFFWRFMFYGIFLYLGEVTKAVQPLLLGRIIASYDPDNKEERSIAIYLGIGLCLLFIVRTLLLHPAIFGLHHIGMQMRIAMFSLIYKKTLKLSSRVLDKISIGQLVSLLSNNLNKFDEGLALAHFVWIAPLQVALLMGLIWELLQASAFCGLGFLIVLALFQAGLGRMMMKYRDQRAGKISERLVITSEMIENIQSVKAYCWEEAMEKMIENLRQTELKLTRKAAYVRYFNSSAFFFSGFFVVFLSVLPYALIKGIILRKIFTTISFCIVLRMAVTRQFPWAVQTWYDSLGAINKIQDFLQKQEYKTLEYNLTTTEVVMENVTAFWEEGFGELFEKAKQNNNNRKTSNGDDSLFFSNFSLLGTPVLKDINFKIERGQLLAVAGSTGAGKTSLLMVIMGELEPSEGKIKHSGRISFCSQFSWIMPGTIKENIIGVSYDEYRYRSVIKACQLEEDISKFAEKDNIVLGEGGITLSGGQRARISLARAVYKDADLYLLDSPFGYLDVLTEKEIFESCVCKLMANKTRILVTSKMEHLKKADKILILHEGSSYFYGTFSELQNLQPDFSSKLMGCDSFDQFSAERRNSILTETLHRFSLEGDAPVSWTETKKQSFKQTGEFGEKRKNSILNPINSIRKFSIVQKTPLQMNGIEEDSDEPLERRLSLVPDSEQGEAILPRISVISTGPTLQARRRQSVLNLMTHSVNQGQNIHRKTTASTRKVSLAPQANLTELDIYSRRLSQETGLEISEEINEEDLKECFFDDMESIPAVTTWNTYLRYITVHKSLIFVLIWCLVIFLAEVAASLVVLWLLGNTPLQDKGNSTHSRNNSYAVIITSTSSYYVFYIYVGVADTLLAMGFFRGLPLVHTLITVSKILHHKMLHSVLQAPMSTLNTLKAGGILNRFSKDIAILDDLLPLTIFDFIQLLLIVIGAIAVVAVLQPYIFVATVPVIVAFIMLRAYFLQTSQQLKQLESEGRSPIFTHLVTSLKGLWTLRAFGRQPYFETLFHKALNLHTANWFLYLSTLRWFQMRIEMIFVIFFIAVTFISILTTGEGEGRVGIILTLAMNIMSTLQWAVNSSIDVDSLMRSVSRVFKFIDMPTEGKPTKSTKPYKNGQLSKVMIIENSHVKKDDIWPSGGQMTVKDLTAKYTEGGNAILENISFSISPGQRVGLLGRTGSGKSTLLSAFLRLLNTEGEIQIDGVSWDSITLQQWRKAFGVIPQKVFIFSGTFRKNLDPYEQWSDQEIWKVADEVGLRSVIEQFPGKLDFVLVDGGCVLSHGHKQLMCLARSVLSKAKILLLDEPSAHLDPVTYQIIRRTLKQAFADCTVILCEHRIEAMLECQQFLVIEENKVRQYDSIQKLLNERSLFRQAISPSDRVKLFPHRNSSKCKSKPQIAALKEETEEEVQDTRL

Turning to `CC1(c2nn(-c3ccccc3)c3nc(C(=O)O)cc(-c4ccc(N5CCOCC5)cc4)c23)CC1` [compound 129, 3-(1-methylcyclopropyl)-4-[4-(morpholin-4-yl)phenyl]-1-phenyl-1H-pyrazolo[3,4-b]pyridine-6-carboxylic acid], the “% Activation” value at ΔF508-CFTR [1] (setting [3]) is given as 178.3%; on ΔF508-CFTR [2] it was 380%. The values for the concentration giving a half-maximal response (EC50) at ΔF508-CFTR [1] (setting [4]) and at ΔF508-CFTR [2] were 414 nM and 390 nM, respectively.
On to `CC(C)c1nn(-c2ccc(F)cc2)c2nc(C(=O)O)cc(N3CCC(N4CCN(C)CC4)CC3)c12` [compound 753, 1-(4-fluorophenyl)-4-[4-(4-methylpiperazin-1-yl)piperidin-1-yl]-3-(propan-2-yl)-1H-pyrazolo[3,4-b]pyridine-6-carboxylic acid], for which the “% Activation” value is 215% on ΔF508-CFTR [1] (setting [5]) and 377.6% at ΔF508-CFTR [2]. Also, the 50% effective concentration (EC50) on ΔF508-CFTR [1] (setting [5]) was determined as 1030 nM; at ΔF508-CFTR [2] it was 301 nM.
The like results for `O=C(O)c1cc(N2CCN(CCCO)CC2)c2c(C3CCC3)nn(-c3ccccc3)c2n1` [compound 471, 3-cyclobutyl-4-[4-(3-hydroxypropyl)piperazin-1-yl]-1-phenyl-1H-pyrazolo[3 ,4-b]pyridine-6-carboxylic acid] were, in that order, 106.45%, 259.9%, 3340 nM and 2990 nM.
The like results for `CN1CC[C@H](Oc2cc(C(=O)O)nc3c2c(C2CCC2)nn3-c2ccccc2)C1` [compound 651, 3-cyclobutyl-4-{[(3S)-1-methylpyrrolidin-3-yl]oxy}-1-phenyl-1H-pyrazolo[3,4-b]pyridine-6-carboxylic acid] were, in that order, 54.22%, 187.9%, 3330 nM and 2200 nM.
Take `COC1CCN(c2cc(C(=O)O)nc3c2c(C(C)C)nn3C2CCCCC2)CC1` [compound 264, 1-cyclohexyl-4-(4-methoxypiperidin-1-yl)-3-(propan-2-yl)-1H-pyrazolo[3,4-b]pyridine-6-carboxylic acid]: the “% Activation” value turned out to be 213.88% on ΔF508-CFTR [1] (setting [3]) and 428.47% at ΔF508-CFTR [2]. Further, the EC50 at ΔF508-CFTR [1] (setting [4]) was found to be 747 nM; on ΔF508-CFTR [2], 463 nM.
As to `COCC(C)N1CCN(c2cc(C(=O)O)nc3c2c(C2CCC2)nn3-c2ccccc2)CC1` (stereo not shown) [compound 682, 3-cyclobutyl-4-[4-(1-methoxypropan-2-yl)piperazin-1-yl]-1-phenyl-1H-pyrazolo[3,4-b]pyridine-6-carboxylic acid], at ΔF508-CFTR [1] (setting [5]), the “% Activation” value was determined as 172.9% and the EC50 is 180 nM. In addition, at ΔF508-CFTR [2], the “% Activation” value is on record as 368.9% and the EC50 was found to be 116 nM.
On to `CN(c1ccc(-c2cc(C(=O)O)nc3c2c(C2CCC2)nn3-c2cccc(N3CCCC3)c2)cn1)C1CCOCC1` [compound 252, 3-cyclobutyl-4-{6-[methyl(oxan-4-yl)amino]pyridin-3-yl}-1-[3-(pyrrolidin-1-yl)phenyl]-1H-pyrazolo[3,4-b]pyridine-6-carboxylic acid], for which the “% Activation” value on ΔF508-CFTR [1] (setting [3]) came out at 398.4%; on ΔF508-CFTR [2], 630.25%. Besides, the EC50 on ΔF508-CFTR [1] (setting [4]) is 698 nM; at ΔF508-CFTR [2], 505 nM.
On to `CC(C)c1nn(-c2cccc(N3CCOCC3)c2)c2nc(C(=O)O)cc(-c3ccc(N(C)C4CCOCC4)nc3)c12` [compound 187, 4-{6-[methyl(oxan-4-yl)amino]pyridin-3-yl}-1-[3-(morpholin-4-yl)phenyl]-3-(propan-2-yl)-1H-pyrazolo[3,4-b]pyridine-6-carboxylic acid], for which the results for the “% Activation” value at ΔF508-CFTR [1] (setting [3]) and at ΔF508-CFTR [2] were 367.4% and 522%, respectively. The EC50 is 674 nM at ΔF508-CFTR [1] (setting [4]) and 565 nM on ΔF508-CFTR [2].
For `N#CC1CCN(c2ccc(-c3cc(C(=O)O)nc4c3c([C@H]3C[C@@H](F)C3)nn4-c3ccccc3)cn2)CC1` [compound 432, 4-[6-(4-cyanopiperidin-1-yl)pyridin-3-yl]-3-(cis-3-fluorocyclobutyl)-1-phenyl-1H-pyrazolo[3,4-b]pyridine-6-carboxylic acid], on ΔF508-CFTR [1] (setting [5]), the “% Activation” value stood at 197.97% and the EC50 amounted to 561 nM. In addition, on ΔF508-CFTR [2], the “% Activation” value was 388.23% and the EC50 was found to be 298 nM.
For the compound `CO[C@H]1CCCC[C@@H]1Oc1cc(C(=O)O)nc2c1c(C1CCC1)nn2-c1ccccc1` [compound 580, 3-cyclobutyl-4-{[(1S,2S)-2-methoxycyclohexyl]oxy}-1-phenyl-1H-pyrazolo[3,4-b]pyridine-6-carboxylic acid], on ΔF508-CFTR [1] (setting [5]), the “% Activation” value is on record as 88.82% and the EC50 stood at 333 nM. Also, at ΔF508-CFTR [2], the “% Activation” value is reported as 288% and the concentration giving a half-maximal response (EC50) came to 312 nM.
The like results for `O=C(O)c1cc(N2CC3(CCCC3)C2)c2c(C3CCC3)nn(-c3ccccc3)c2n1` [compound 404, 4-(2-azaspiro[3.4]octan-2-yl)-3-cyclobutyl-1-phenyl-1H-pyrazolo[3,4-b]pyridine-6-carboxylic acid] were, in that order, 104.91%, 910 nM, 275.95% and 849 nM.
Regarding `Cc1nn(-c2ccccc2)c2nc(C(=O)O)cc(OCCN(CC(C)C)C3CC3)c12` [compound 385, 4-{2-[cyclopropyl(2-methylpropyl)amino]ethoxy}-3-methyl-1-phenyl-1H-pyrazolo[3,4-b]pyridine-6-carboxylic acid], the entries for the “% Activation” value on ΔF508-CFTR [1] (setting [3]) and on ΔF508-CFTR [2] were 54.89% and 238.75%, respectively. For the same compound, the EC50 at ΔF508-CFTR [1] (setting [4]) and on ΔF508-CFTR [2] was 1670 nM in each case.
As to `CCN(CC)CCN1CCN(c2cc(C(=O)O)nc3c2c(C(C)C)nn3-c2ccc(F)cc2)CC1` [compound 800, 4-[4-[2-(diethylamino)ethyl]piperazin-1-yl}-1-(4-fluorophenyl)-3-(propan-2-yl)-1H-pyrazolo[3,4-b]pyridine-6-carboxylic acid], at ΔF508-CFTR [1] (setting [5]), the “% Activation” value came out at 45.22% and the EC50 came out at 1670 nM. In addition, on ΔF508-CFTR [2], the “% Activation” value amounted to 214.8% and the EC50 was 1490 nM.
The like results for `O=C(O)c1cc(OC[C@H](F)C2CCOCC2)c2c(C3CCC3)nn(-c3ccccc3)c2n1` [compound 434, 3-cyclobutyl-4-[(2R)-2-fluoro-2-(oxan-4-yl)ethoxy]-1-phenyl-1H-pyrazolo[3,4-b]pyridine-6-carboxylic acid] were, in that order, 154.17%, 581 nM, 342.8% and 328 nM.
For `COC1CCN(c2cc(C(=O)O)nc3c2c(C(C)C)nn3-c2ccc(F)cc2)CC1` [compound 393, 1-(4-fluorophenyl)-4-(4-methoxypiperidin-1-yl)-3-(propan-2-yl)-1H-pyrazolo[3,4-b]pyridine-6-carboxylic acid], the “% Activation” value at ΔF508-CFTR [1] (setting [3]) was 258.8%; on ΔF508-CFTR [2], 454.3%. Further, the concentration giving a half-maximal response (EC50) at ΔF508-CFTR [1] (setting [4]) was 558 nM; on ΔF508-CFTR [2] it was 314 nM.
Take `CO[C@@H]1CCC[C@@H](n2nc(C(C)C)c3c(-c4ccc(N5CCOCC5)cc4)cc(C(=O)O)nc32)C1` [compound 214, 1-[(1R,3R)-3-methoxycyclohexyl]-4-[4-(morpholin-4-yl)phenyl]-3-(propan-2-yl)-1H-pyrazolo[3,4-b]pyridine-6-carboxylic acid]: the “% Activation” value on ΔF508-CFTR [1] (setting [3]) worked out at 154%; on ΔF508-CFTR [2] it was 323%. The EC50 is 820 nM at ΔF508-CFTR [1] (setting [4]) and 609 nM at ΔF508-CFTR [2].
